The target in data set [1] is T1, glycated HSA (Homo sapiens, UniProt P02768). Conditions: pH 7.4, 37°C; versus reported Ka of 1.1 × 10^4 M^−1 for normal HSA.
The conditions of data set [2]: depending on storage conditions; cited from earlier work.
Data set [3] deals with T1, glycated HSA. As to conditions: 4°C, comparable glycation conditions; cited from earlier work.
The next data set deals with normal HSA. Conditions: normal HSA columns, 37°C; cited from earlier work.
The target in data set [4] is T2, glycated HSA (gHSA3) (Homo sapiens, UniProt P02768). As to conditions: gHSA3 column.
Data set [5] addresses T2, glycated HSA (gHSA3). In words: biochemical.
In data set [6] the target is T3, glycated HSA (gHSA2) (Homo sapiens, UniProt P02768). In words: biochemical.
Data set [7] deals with T4, glycated HSA (gHSA1) (Homo sapiens, UniProt P02768). In words: biochemical.
Data set [8] has as its target T4, glycated HSA (gHSA1). Conditions: gHSA1 column.
In data set [9] the target is T3, glycated HSA (gHSA2). As to conditions: gHSA2 column.
[10] abbreviates: binding capacity normalized for protein content.
[11] abbreviates: moles of active binding sites, Eqn. 3.

Results on one compound are retold here after paper PMC2907420 (Journal of pharmaceutical and biomedical analysis, 2010).

Bounds are passed on as bounds.

T2 sequence (P02768 25-609): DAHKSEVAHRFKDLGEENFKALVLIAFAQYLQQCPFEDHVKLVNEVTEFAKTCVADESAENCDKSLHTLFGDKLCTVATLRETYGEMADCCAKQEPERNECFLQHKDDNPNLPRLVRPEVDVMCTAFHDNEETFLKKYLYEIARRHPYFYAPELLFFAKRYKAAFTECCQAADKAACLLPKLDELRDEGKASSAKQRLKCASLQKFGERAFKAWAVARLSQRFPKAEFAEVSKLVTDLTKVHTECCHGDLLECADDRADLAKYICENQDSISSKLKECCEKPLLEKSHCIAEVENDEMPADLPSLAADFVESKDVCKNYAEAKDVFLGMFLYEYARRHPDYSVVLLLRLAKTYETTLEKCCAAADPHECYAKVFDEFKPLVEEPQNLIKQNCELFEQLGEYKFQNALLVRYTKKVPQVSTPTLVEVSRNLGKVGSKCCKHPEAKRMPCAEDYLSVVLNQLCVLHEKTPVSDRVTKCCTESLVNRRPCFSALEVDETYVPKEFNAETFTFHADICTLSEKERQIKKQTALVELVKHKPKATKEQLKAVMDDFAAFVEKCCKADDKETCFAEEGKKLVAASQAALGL
T4 sequence (P02768 25-609): as above
T3 sequence (P02768 25-609): as above
T1 sequence (P02768 25-609): as above

Take `N[C@@H](Cc1c[nH]c2ccccc12)C(=O)O` [L-Tryptophan, L-tryptophan]: at glycated HSA [1], the “increase in binding affinity (Ka) with glycated HSA versus normal HSA” value is on record as 4.7–5.8 fold. Moreover, the “time over which solutions decrease in stability” value in data set [2] is 2 to 9 days. Also, the “decrease in affinity, glycated HSA versus HSA” value on glycated HSA [3] is given as no more than 0.6 fold. Besides, in the data set on normal HSA, the association equilibrium constant is 11000 M⁻¹. For the same compound, the “Specific Activity” value was 0.31 (± 0.04) mol/mol HSA on glycated HSA (gHSA3) [4] (setting [10]), 0.36 (± 0.08) mol/mol HSA at glycated HSA (gHSA1) [8] (setting [10]) and 0.30 (± 0.05) mol/mol HSA on glycated HSA (gHSA2) [9] (setting [10]). Further, the values for the mL at glycated HSA (gHSA3) [4] (setting [11]), on glycated HSA (gHSA1) [8] (setting [11]) and at glycated HSA (gHSA2) [9] (setting [11]) were 5.8 (± 0.6) × 10^−9 mol, 5.0 (± 0.9) × 10^−9 mol and 6.7 (± 1.8) × 10^−9 mol, respectively. Besides, the Kd on glycated HSA (gHSA3) [5] is 17.5 µM; on glycated HSA (gHSA2) [6], 15.6 µM; on glycated HSA (gHSA1) [7] it was 19.2 µM.
